Columns and labels:
[1] = target: T1, PDE5A1 (Homo sapiens, UniProt O76074); test: PDE enzyme activity assay (HTRF cGMP), PDE5A; type: biochemical; conditions: recombinant enzyme; read-out: PDE5A1 inhibition (IC50)
T1 construct: they are full-length with N-terminal GST tag; GST (N); purchased BPS Biosciences 60050; host or cells: baculovirus infected Sf9 cells

[2] = tested on: acetylated histone 3 at Lys9 (AcH3K9); test: HDAC activity using SHSY-5Y cell line (Western blot, histone 3 acetylation); type: cell-based, human; parameters: key: basal x1 means no increment (+); basal x1.4≤(++)<basal x2; basal x2≤(+++)<basal x3; basal x3≤(++++); N.E. means No Effect; conditions: SHSY-5Y cells, 24 hours
Protocol: HDAC inhibition leads to the corresponding functional response, increase in AcH3 level. Therefore, the cellular assay to conclude HDAC activity was assessed by Western blot analysis using specific antibodies against acetylated histone 3 at Lys9 (AcH3K9). Cell cultures were treated at 100 nM, 500 nM, 1 μM and/or 5 μM with compounds of the invention or known PDE inhibitors during 24 hours and, Table 1 (below) describes the functional activity: histone 3 acetylation level (AcH3) vs basal (no treatment).
A human neuroblastoma cell line (SHSY-5Y) was used. Cell line was obtained from ATCC (CRL-2266) and cultured in 35 mm plates (Becton Dickinson, NJ).
The cells were grown to 90% confluence at 37° C. in an atmosphere of 5% CO2 and in Dulbecco's modified Eagle's medium supplemented with Glutamax (Gibco, Invitrogen, CA), 100 units/ml penicillin/streptomycin, 1×MEM nonessential amino acids and 10% fetal bovine serum (Gibco, Invitrogen, CA).
Cells were collected and sonicated in a buffer containing a cold lysis buffer with protease inhibitors (0.2 M NaCl, 0.1 M HEPES (4-(2-hydroxyethyl)-1-piperazineethanesulfonic acid), 10% glycerol, 200 mM NaF, 2 mM Na4P2O7, 5 mM EDTA (ethylenediaminetetraacetic acid), 1 mM EGTA (ethylene glycol tetraacetic acid), 2 mM DTT (dithiothreitol), 0.5 mM PMSF (phenylmethylsulfonyl fluoride), 1 mM Na3VO4 and Complete Protease Inhibitor Cocktail, Roche Diagnostics), centrifuged at 14,000×g 4° C. for 20 min and the supernatant was aliquoted and stored at −80° C. Total protein concentrations were determined using the BioRad Bradford protein assay (BioRad Laboratories).
Protein samples were mixed with Laemmli sample buffer, resolved onto Sodium Dodecyl Sulfate (SDS)-polyacrylamide gels and transferred to nitrocellulose membrane. The membranes were blocked with 5% milk, 0.05% Tween-20 in PBS (Phosphate-Buffered Saline) or TBS (Tris-Buffered Saline) followed by overnight incubation with the following primary antibodies: rabbit polyclonal anti-acetylated Histone 3 (acetyl K9) (Cell Signalling Technology), rabbit polyclonal anti-total Histone 3 (Millipore), in the corresponding buffer. All the antibodies were used at 1:1000 dilution except the mouse monoclonal anti-β-actin which was used at 1:50.000. Following two washes in TBS/Tween20 and one wash in TBS alone, immunolabeled protein bands were detected by using HRP-conjugated anti-rabbit or anti-mouse antibody (Santa Cruz Biotechnology; dilution 1:5.000) following an enhanced chemiluminescence system (ECL, GE Healthcare Bioscience, Buckinghamshire, UK), and autoradiographic exposure to HyperfilmtECL (GE Healthcare Bioscience). Quantity One™ software v.4.6.3 (Bio-Rad) was used for quantification.

[3] = target: T2, PDE9A (Homo sapiens, UniProt O76083); test: PDE enzyme activity assay (HTRF cGMP), PDE9A; type: biochemical; conditions: recombinant enzyme; read-out: PDE9A inhibition (IC50)
T2 construct: they are full-length with N-terminal GST tag; GST (N); purchased BPS Biosciences 60090; host or cells: baculovirus infected Sf9 cells

[4] = tested on: AcH3; test: In-vivo AcH3 in hippocampus of wild type mice; conditions: single dose of 12.5 mg/Kg i.p.
Protocol: (§1) Another group of animals received the vehicle (1/1/8, v:v:v, DMSO/Tween 20/saline). One hour later, mice were sacrificed by cervical dislocation and their hippocampus was quickly dissected from the brains. Total tissue homogenates were obtained by homogenizing the hippocampus in a cold lysis buffer with protease inhibitors (0.2 M NaCl, 0.1 M HEPES, 10% glycerol, 200 mM NaF, 2 mM Na4P2O7, 5 mM EDTA, 1 mM EGTA, 2 mM DTT, 0.5 mM PMSF, 1 mM Na3VO4 and Complete Protease Inhibitor Cocktail, Roche Diagnostics). The homogenate was then centrifuged at 14,000×g at 4° C. for 20 min and the supernatant aliquoted and stored at −80° C. Total protein concentrations were determined using the BioRad Bradford protein assay (BioRad Laboratories). Protein samples were analyzed as described in the “in vitro” section.

[5] = tested on: pCREB; test: In-vivo pCREB in hippocampus of wild type mice; parameters: key: basal x1 means no increment (+); basal x1.4≤(++)<basal x2; basal x2≤(+++)<basal x3; basal x3≤(++++); N.E. means No Effect; conditions: single dose of 12.5 mg/Kg i.p.
Protocol: as §1

T2 sequence (O76083 1-533 isoform O76083-2): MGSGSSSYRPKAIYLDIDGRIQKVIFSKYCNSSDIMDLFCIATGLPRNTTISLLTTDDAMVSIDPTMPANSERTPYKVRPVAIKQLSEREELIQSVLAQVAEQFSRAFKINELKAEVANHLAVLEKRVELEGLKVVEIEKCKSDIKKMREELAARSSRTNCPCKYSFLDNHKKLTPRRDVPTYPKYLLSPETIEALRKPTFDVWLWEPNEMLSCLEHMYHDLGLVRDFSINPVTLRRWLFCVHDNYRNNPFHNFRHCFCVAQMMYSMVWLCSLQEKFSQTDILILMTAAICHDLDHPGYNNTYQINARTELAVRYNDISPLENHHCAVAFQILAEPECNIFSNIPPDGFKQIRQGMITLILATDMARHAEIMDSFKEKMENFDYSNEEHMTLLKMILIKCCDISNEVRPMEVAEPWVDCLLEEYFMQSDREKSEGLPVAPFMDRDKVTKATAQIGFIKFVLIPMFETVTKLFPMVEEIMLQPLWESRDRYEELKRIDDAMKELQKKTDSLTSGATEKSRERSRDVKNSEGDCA

| IC50 [1] | IC50 [3] | SMILES | AcH3: increment in Histone 3 acetylation level vs basal ([2]; compound concentration 1 μM) | AcH3: increment in Histone 3 acetylation level vs basal ([2]; compound concentration 5 μM) | AcH3 increment vs basal [4] | pCREB increment vs basal [5] |
| --- | --- | --- | --- | --- | --- | --- |
| < 0.01 µM |  | CCCc1nc(C)c2c(=O)[nH]c(-c3cc(CC4CC(C(=O)Nc5ccccc5N)C4)ccc3OCC)nn12 (racemic) [Example 2-04, N-(2-aminophenyl)-3-[[4-ethoxy-3-(5-methyl-4-oxo-7-propyl-3H-imidazo[5,1-f][1,2,4]triazin-2-yl)phenyl]methyl]cyclobutanecarboxamide] | ++++ (basal x3≤(++++)) |  |  |  |
|  | 0.01 to 1 µM | C[C@@H]1CN(Cc2ccc(C(=O)Nc3ccccc3N)cc2)C[C@H]1c1nc2c(cnn2C2CCCC2)c(=O)[nH]1 (racemic) [Example 3-01, N-(2-aminophenyl)-4-[[(3S,4S)-3-(1-cyclopentyl-4-oxo-5H-pyrazolo[3,4-d]pyrimidin-6-yl)-4-methyl-pyrrolidin-1-yl]methyl] benzamide] | ++ (basal x1.4≤(++)<basal x2) |  |  |  |
| 1 to 10 µM |  | Nc1ccccc1NC(=O)c1cnc(N2CCC(CN3CC(=O)N4C(Cc5c([nH]c6ccccc56)C4c4ccc5c(c4)OCO5)C3=O)CC2)nc1 (racemic) [Example 4-01, N-(2-aminophenyl)-2-(4-((6-(benzo[d][1,3]dioxol-5-yl)-1,4-dioxo-3,4,6,7,12,12a-hexahydropyrazino[1′,2′:1,6]pyrido[3,4-b]indol-2(1H)-yl)methyl)piperidin-1-yl)pyrimidine-5-carboxamide] |  | ++ (basal x1.4≤(++)<basal x2) |  |  |
| < 0.01 µM |  | CCCc1nc(C)c2c(=O)[nH]c(-c3cc(S(=O)(=O)N4CCN(c5ncc(C(=O)Nc6ccccc6N)cn5)CC4)ccc3OCC)nn12 [Example 2-02, N-(2-aminophenyl)-2-[4-[4-ethoxy-3-(5-methyl-4-oxo-7-propyl-3H-imidazo[5,1-f][1,2,4]triazin-2-yl)phenyl]sulfonylpiperazin-1-yl]pyrimidine-5-carboxamide] | ++++ (basal x3≤(++++)) |  |  |  |
| < 0.01 µM |  | CCCc1nc(C)c2c(=O)[nH]c(-c3cc(S(=O)(=O)NC4CCN(c5ncc(C(=O)Nc6ccccc6N)cn5)CC4)ccc3OCC)nn12 [Example 2-03] | ++ (basal x1.4≤(++)<basal x2) |  |  |  |
| 0.01 to 1 µM |  | CCCc1nc(C)c2c(=O)[nH]c(-c3cc(Cc4ccc(C(=O)Nc5cscc5N)cc4)ccc3OCC)nn12 [Example 2-07, N-(4-amino-3-thienyl)-4-[[4-ethoxy-3-(5-methyl-4-oxo-7-propyl-3H-imidazo[5,1-f][1,2,4]triazin-2-yl)phenyl]methyl]benzamide] | ++ (basal x1.4≤(++)<basal x2) |  |  |  |

More lines, now with the values behind:

| SMILES | IC50 [1] | IC50 [3] | AcH3: increment in Histone 3 acetylation level vs basal ([2]; compound concentration 1 μM) | AcH3: increment in Histone 3 acetylation level vs basal ([2]; compound concentration 5 μM) | AcH3 increment vs basal [4] | pCREB increment vs basal [5] |
| --- | --- | --- | --- | --- | --- | --- |
| CCCc1nn(C)c2c(=O)[nH]c(-c3cc(CC4CC(C(=O)Nc5ccccc5N)C4)ccc3OCC)nc12 (racemic) [Example 1-04, N-(2-aminophenyl)-3-[[4-ethoxy-3-(1-methyl-7-oxo-3-propyl-6H-pyrazolo[4,3-d]pyrimidin-5-yl)phenyl]methyl]cyclobutanecarboxamide] | 0.01 to 1 µM |  | ++++ (basal x3≤(++++)) |  |  |  |
| CCCc1nn(C)c2c(=O)[nH]c(-c3cc(C4CCC(C(=O)Nc5ccccc5N)CC4)ccc3OCC)nc12 (racemic) [Example 1-05, N-(2-aminophenyl)-4-[4-ethoxy-3-(1-methyl-7-oxo-3-propyl-6H-pyrazolo[4,3-d]pyrimidin-5-yl)phenyl]cyclohexanecarboxamide] | 0.01 to 1 µM |  | +++ (basal x2≤(+++)<basal x3) |  |  |  |
| CCCc1nn(C)c2c(=O)[nH]c(-c3cc(S(=O)(=O)N4CCN(c5ncc(C(=O)Nc6ccccc6N)cn5)CC4)ccc3OCC)nc12 [Example 1-01, N-(2-aminophenyl)-2-[4-[4-ethoxy-3-(1-methyl-7-oxo-3-propyl-6H-pyrazolo[4,3-d]pyrimidin-5-yl)phenyl]sulfonylpiperazin-1-yl]pyrimidine-5-carboxamide] | 0.01 to 1 µM |  | +++ (basal x2≤(+++)<basal x3) |  |  |  |
| CCCc1nn(C)c2c(=O)[nH]c(-c3cc(S(=O)(=O)NC4CCN(c5ncc(C(=O)Nc6ccccc6N)cn5)CC4)ccc3OCC)nc12 [Example 1-02] | 0.01 to 1 µM |  | +++ (basal x2≤(+++)<basal x3) |  |  |  |
| CCCc1nn(C)c2c(=O)[nH]c(-c3cc(S(=O)(=O)NCc4ccc(C(=O)Nc5ccccc5N)cc4)ccc3OCC)nc12 [Example 1-03] | 0.01 to 1 µM |  | ++++ (basal x3≤(++++)) |  |  |  |
| CCCc1nn(C)c2c(=O)[nH]c(-c3cc(C4CCC(C(=O)Nc5ccccc5N)CC4)ccc3OCC)nc12 (stereo not shown) [Example 1-06, N-(2-aminophenyl)-4-[4-ethoxy-3-(1-methyl-7-oxo-3-propyl-6H-pyrazolo[4,3-d]pyrimidin-5-yl)phenyl]cyclohexanecarboxamide] | 0.01 to 1 µM |  | +++ (basal x2≤(+++)<basal x3) |  |  |  |
| CCCc1nn(C)c2c(=O)[nH]c(-c3cc(Cc4ccc(C(=O)Nc5ccccc5N)s4)ccc3OCC)nc12 [Example 1-08] | 0.01 to 1 µM |  | ++++ (basal x3≤(++++)) |  |  |  |
| CCCc1nn(C)c2c(=O)[nH]c(-c3cc(Cc4ccc(C(=O)Nc5cc(-c6cccs6)ccc5N)cc4)ccc3OCC)nc12 [Example 1-13, N-[2-amino-5-(2-thienyl)phenyl]-4-[[4-ethoxy-3-(1-methyl-7-oxo-3-propyl-6H-pyrazolo[4,3-d]pyrimidin-5-yl)phenyl]methyl]benzamide] | 1 to 10 µM |  | ++ (basal x1.4≤(++)<basal x2) |  |  |  |
| CCCc1nn(C)c2c(=O)[nH]c(-c3cc(CC(=O)Nc4ccccn4)ccc3OCC)nc12 [Example 1-15, 2-[4-ethoxy-3-(1-methyl-7-oxo-3-propyl-6H-pyrazolo[4,3-d]pyrimidin-5-yl)phenyl]-N-(2-pyridyl)acetamide] | 0.01 to 1 µM |  | ++ (basal x1.4≤(++)<basal x2) |  |  |  |
| CCCc1nn(C)c2c(=O)[nH]c(-c3cc(Cc4ccc(C(=O)N5CCNC(=O)C5)cc4)ccc3OCC)nc12 [Example 1-19] | 0.01 to 1 µM |  | ++ (basal x1.4≤(++)<basal x2) |  |  |  |
| CCCc1nn(C)c2c(=O)[nH]c(-c3cc(Cc4ccc(C(=O)Nc5cscc5N)cc4)ccc3OCC)nc12 [Example 1-20] | 1 to 10 µM |  | ++ (basal x1.4≤(++)<basal x2) |  |  |  |
| CCCc1nn(C)c2c(=O)[nH]c(-c3cc(S(=O)(=O)N4CCN(C)CC4)ccc3OCC)nc12 [Sildenafil, reference compound] |  |  | N.E. |  |  |  |
| O=C(CCCCCCC(=O)Nc1ccccc1)NO [Vorinostat] | > 10 µM | > 10 µM | ++++ (basal x3≤(++++)) |  | +++ (basal x2≤(+++)<basal x3) | N.E. |
